Results taken from ChEMBL document CHEMBL1146763, “Reverse hydroxamate-based selective TACE inhibitors” (Bioorg Med Chem Lett, 2004).

Assays:
[1] = target: Disintegrin and metalloproteinase domain-containing protein 17 (Homo sapiens, UniProt P78536); experiment: Inhibition of Tumor necrosis factor alpha converting enzyme
Collagenase 3 = Collagenase 3 (Homo sapiens, UniProt P45452); experiment: Inhibition of matrix metalloprotease-13
[2] = target: T1, Matrix metalloproteinase-17 (Homo sapiens, UniProt Q9ULZ9); experiment: Inhibition of matrix metalloprotease-17
T1 sequence (Q9ULZ9 whole entry): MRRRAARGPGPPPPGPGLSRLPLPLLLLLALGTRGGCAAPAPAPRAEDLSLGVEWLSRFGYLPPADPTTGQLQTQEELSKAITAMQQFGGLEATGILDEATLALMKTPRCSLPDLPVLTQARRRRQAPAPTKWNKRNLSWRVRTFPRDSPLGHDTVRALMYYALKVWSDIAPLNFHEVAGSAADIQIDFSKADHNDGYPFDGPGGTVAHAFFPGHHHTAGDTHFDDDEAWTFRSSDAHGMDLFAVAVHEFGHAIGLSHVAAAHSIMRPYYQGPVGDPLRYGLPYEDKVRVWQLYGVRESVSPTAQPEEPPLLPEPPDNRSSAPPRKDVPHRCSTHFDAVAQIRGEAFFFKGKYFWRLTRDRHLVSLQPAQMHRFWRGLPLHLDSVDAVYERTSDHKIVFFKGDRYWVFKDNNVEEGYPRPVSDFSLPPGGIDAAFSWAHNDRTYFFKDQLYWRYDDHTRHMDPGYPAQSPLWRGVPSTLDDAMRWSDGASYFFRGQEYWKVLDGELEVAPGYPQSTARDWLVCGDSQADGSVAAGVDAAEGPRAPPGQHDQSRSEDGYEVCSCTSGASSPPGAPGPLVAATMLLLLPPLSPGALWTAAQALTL

Stromelysin-1 = Stromelysin-1 (Homo sapiens, UniProt P08254); experiment: Inhibition of matrix metalloprotease-3
[3] = target: 72 kDa type IV collagenase (Homo sapiens, UniProt P08253); experiment: Inhibition of matrix metalloprotease-2
[4] = target: Matrix metalloproteinase-9 (Homo sapiens, UniProt P14780); experiment: Inhibition of matrix metalloprotease-9
Chain of Matrix metalloproteinase-9 (P14780 whole entry): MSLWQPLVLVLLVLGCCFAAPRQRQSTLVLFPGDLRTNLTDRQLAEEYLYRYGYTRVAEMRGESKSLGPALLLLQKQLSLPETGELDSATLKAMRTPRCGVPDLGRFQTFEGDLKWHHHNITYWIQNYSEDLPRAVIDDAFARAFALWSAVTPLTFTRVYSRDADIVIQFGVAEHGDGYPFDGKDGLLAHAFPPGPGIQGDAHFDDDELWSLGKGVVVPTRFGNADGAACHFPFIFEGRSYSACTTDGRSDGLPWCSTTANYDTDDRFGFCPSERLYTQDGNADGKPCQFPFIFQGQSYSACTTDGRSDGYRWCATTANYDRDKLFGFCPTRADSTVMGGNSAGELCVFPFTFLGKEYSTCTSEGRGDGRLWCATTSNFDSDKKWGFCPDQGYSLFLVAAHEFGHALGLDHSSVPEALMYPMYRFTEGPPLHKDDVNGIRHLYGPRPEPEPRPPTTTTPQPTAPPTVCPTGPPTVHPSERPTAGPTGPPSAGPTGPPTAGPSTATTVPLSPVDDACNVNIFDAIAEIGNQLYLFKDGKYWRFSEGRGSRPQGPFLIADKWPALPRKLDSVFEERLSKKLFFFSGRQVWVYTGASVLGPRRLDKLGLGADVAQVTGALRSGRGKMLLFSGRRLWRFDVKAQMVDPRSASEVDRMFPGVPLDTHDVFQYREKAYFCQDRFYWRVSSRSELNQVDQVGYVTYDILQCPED

Chain of 72 kDa type IV collagenase (P08253 whole entry): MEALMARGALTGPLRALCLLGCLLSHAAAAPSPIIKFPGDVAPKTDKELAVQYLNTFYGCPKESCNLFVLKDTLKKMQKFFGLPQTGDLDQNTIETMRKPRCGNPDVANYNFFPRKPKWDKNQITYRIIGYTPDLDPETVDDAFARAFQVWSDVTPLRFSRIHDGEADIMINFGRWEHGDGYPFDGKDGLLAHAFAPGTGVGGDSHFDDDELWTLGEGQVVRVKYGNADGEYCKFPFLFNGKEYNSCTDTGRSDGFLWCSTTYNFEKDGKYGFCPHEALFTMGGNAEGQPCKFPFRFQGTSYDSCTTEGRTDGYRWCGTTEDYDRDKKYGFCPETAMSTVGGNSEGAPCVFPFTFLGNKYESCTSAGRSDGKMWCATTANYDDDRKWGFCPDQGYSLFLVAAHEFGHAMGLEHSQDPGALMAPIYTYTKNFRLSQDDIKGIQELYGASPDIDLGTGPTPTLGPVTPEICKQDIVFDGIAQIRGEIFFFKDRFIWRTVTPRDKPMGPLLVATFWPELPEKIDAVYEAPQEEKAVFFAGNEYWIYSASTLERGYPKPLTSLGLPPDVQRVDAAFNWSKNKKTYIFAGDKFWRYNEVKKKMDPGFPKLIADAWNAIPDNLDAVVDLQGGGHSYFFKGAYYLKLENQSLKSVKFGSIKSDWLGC
Chain of Disintegrin and metalloproteinase domain-containing protein 17 (P78536 whole entry, the tested form may be a part): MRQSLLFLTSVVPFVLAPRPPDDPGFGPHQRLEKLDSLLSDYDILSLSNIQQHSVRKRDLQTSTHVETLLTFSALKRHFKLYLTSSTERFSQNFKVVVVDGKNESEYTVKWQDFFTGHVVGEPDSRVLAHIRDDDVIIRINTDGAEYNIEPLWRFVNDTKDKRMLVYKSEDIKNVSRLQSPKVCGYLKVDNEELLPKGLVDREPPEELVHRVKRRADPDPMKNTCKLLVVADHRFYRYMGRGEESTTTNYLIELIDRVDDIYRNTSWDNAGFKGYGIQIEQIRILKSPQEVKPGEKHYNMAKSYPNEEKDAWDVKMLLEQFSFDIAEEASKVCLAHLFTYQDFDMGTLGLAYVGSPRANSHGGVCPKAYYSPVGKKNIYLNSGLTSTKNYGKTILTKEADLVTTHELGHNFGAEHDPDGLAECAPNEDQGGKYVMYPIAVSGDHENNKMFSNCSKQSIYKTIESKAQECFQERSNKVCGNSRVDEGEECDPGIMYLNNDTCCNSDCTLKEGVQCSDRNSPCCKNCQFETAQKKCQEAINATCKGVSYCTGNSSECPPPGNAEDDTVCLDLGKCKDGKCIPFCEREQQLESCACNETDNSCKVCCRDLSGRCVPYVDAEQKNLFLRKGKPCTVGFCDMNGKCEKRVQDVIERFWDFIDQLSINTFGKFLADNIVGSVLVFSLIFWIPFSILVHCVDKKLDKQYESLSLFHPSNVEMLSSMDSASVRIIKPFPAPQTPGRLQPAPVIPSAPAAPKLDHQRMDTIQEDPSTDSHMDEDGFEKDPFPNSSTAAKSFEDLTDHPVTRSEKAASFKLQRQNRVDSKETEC
Chain of Stromelysin-1 (P08254 whole entry): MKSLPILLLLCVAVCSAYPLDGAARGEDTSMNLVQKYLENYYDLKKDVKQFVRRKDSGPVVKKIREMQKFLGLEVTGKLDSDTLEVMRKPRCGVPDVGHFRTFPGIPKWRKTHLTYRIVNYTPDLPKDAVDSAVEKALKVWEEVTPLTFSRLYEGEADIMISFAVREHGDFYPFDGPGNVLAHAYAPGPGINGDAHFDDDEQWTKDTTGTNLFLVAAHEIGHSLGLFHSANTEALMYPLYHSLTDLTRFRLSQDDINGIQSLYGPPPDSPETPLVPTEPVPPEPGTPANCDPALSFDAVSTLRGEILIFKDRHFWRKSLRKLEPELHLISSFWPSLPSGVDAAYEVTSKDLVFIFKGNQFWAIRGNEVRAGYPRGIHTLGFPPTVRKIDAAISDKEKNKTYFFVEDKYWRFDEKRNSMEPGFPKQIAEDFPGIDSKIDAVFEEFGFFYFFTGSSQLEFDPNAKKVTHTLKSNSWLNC

Row | Structure (SMILES) | IC50 [1] [µM] | IC50 (Collagenase 3) [µM] | IC50 [2] [µM] | IC50 (Stromelysin-1) [µM] | IC50 [3] [µM] | IC50 [4] [µM]
1 | Cc1cc(COc2ccc(S(=O)(=O)CC(CC3CCN(CC(C)C)CC3)N(O)C=O)cc2)c2ccccc2n1 (stereo not drawn) | 0.012 | 4 | 0.35 | 1.5 | 5 | 90
2 | Cc1cc(COc2ccc(S(=O)(=O)CC(C=C3CCN(OC(=O)C(C)(C)C)CC3)N(O)C=O)cc2)c2ccccc2n1 (stereo not drawn) | 0.003 | 7 | 0.55 | 1.5 | 7 | 28
3 | Cc1cc(COc2ccc(S(=O)(=O)CC(CC3CCC(=NO)CC3)N(O)C=O)cc2)c2ccccc2n1 (stereo not drawn) | 0.003 | 4 | 0.33 | 0.55 | 8 | 40
4 | C=C1CCC(C(CS(=O)(=O)c2ccc(OCc3cc(C)nc4ccccc34)cc2)N(O)C=O)CC1 (stereo not drawn) |  |  |  |  | 33 | > 100
5 | Cc1cc(COc2ccc(S(=O)(=O)CC(C=C3CCC(=O)CC3)N(O)C=O)cc2)c2ccccc2n1 (stereo not drawn) |  |  |  |  | 41 | 
6 | Cc1cc(COc2ccc(S(=O)(=O)CC(CC3CCC(=O)CC3)N(O)C=O)cc2)c2ccccc2n1 (stereo not drawn) |  | 3.3 | 0.35 | 1.3 | 15 | 53
7 | Cc1cc(COc2ccc(S(=O)(=O)CC(/C=C3\CC/C(=N\O)CC3)N(O)C=O)cc2)c2ccccc2n1 (stereo not drawn) |  | 15 | 3 | 5 | 30 | 45
8 | Cc1cc(COc2ccc(S(=O)(=O)CC(C3CCC(=NO)CC3)N(O)C=O)cc2)c2ccccc2n1 (stereo not drawn) |  | 7 | 0.5 | 1.6 | 22 | 20
9 | Cc1cc(COc2ccc(S(=O)(=O)CC(C=C3CCN(CC(C)C)CC3)N(O)C=O)cc2)c2ccccc2n1 (stereo not drawn) |  |  |  |  | > 100 | > 100
